Legend:
Cyclophilin D = Cyclophilin D (Homo sapiens, UniProt P30405); experiment: Cyclophilin inhibition binding, competitive ELISA (Cyclophilin D); settings: human recombinant cyclophilin, read-out: CypD EC50
Procedure: (§1) The cyclophilin inhibition binding activity of compounds disclosed herein was determined using a competitive ELISA adapted from the methods described by Quesniaux et al. (Eur. J Immunol., 1987, 17:1359-1365). Activated ester of succinyl spacers bound to D-Lys^8-cylosporine A (D-Lys^8-Cs) are coupled to bovine serum albumin (BSA) through D-lysyl residue in position 8. BSA is dissolved in 0.1 M borate buffer, pH 9.0 (4 mg in 1.4 ml). A hundredfold molar excess of D-Lys^8-Cs dissolved in dimethyl formamide (0.6 ml) is added dropwise to the BSA under vigorous stirring. The coupling reaction is performed for 2 to 3 hours at room temperature under mild stirring and the conjugate obtained is extensively dialyzed against phosphate-buffered saline (PBS, pH 7.4).
(§2) Microtiter Plates are coated with D-Lys^8-Cs-BSA conjugate (2 μg/ml in PBS for 24 hours at 4° C.). Titration Plates are washed with Tween®/PBS and with PBS alone. To block nonspecific binding, 2% BSA/PBS (pH 7.4) is added to the wells and allowed to incubate for 2 hours at 37° C. A five-fold dilution series of the compound to be tested is made in ethanol in a separate microtiter plate. The starting concentration is 0.1 mg/mL for assays with human recombinant cyclophilin. 198 μL of 0.1 μg/mL cyclophilin solution is added to the microtiter plate immediately followed by 2 μL of diluted cyclosporine A (used as a reference compound) or the compound of the invention. The reaction between coated BSA-Cs conjugate, free cyclosporine A and cyclophilin is allowed to equilibrate overnight at 4° C. Cyclophilin is detected with anti-cyclophilin rabbit serum diluted in PBS containing 1% BSA and incubates overnight at 4° C. Titration Plates are washed as described above. Bound rabbit antibodies are then detected by goat anti-rabbit IgG conjugated to alkaline phosphatase and diluted in 1% BSA-PBS and allowed to incubate for 2 hours at 37° C. Titration Plates are washed as described above. […] The results are expressed as an EC50, which is the concentration of the compound of the invention required to achieve 50% inhibition.

Cyclophilin A = Cyclophilin A (Homo sapiens, UniProt P62937); experiment: Cyclophilin inhibition binding, competitive ELISA (Cyclophilin A); settings: human recombinant cyclophilin, read-out: CypA EC50
Procedure: as §1, §2

Chain of Cyclophilin A (P62937 whole entry): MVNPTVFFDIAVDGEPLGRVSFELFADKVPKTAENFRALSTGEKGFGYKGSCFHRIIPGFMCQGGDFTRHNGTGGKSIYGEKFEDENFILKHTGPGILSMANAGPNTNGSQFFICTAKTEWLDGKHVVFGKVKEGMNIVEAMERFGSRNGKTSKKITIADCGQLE
Chain of Cyclophilin D (P30405 30-207): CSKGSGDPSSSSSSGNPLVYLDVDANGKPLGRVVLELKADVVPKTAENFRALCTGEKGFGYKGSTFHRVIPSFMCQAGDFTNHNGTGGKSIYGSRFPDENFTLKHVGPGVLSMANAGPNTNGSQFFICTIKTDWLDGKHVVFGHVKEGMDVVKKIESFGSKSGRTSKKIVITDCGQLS

| Compound | EC50 (Cyclophilin D) [nM] | EC50 (Cyclophilin A) [nM] |
| --- | --- | --- |
| C/C=C/C[C@@H](C)[C@@H](O)[C@H]1C(=O)N[C@@H](CC)C(=O)N(C)[C@H](OCCN(C)C(C)C)C(=O)N(C)[C@@H](CC(C)C)C(=O)N[C@@H](C(C)C)C(=O)N(C)[C@@H](CC(C)C)C(=O)N[C@@H](C)C(=O)N[C@H](C)C(=O)N(C)[C@@H](CC(C)C)C(=O)N(C)[C@@H](CC(C)C)C(=O)N(C)[C@@H](C(C)C)C(=O)N1C [Entry 2] | 3550 | 202 |
| C/C=C/C[C@@H](C)[C@@H](O)[C@H]1C(=O)N[C@@H](CC)C(=O)N(C)[C@H](OCCCN)C(=O)N(C)[C@@H](CC(C)C)C(=O)N[C@@H](C(C)C)C(=O)N(C)[C@@H](CC(C)C)C(=O)N[C@@H](C)C(=O)N[C@H](C)C(=O)N(C)[C@@H](CC(C)C)C(=O)N(C)[C@@H](CC(C)C)C(=O)N(C)[C@@H](C(C)C)C(=O)N1C [Entry 3] | – | 14 |
| C/C=C/C[C@@H](C)[C@@H](O)[C@H]1C(=O)N[C@@H](CC)C(=O)N(C)[C@H](OCCN2CCC2)C(=O)N(C)[C@@H](CC(C)C)C(=O)N[C@@H](C(C)C)C(=O)N(C)[C@@H](CC(C)C)C(=O)N[C@@H](C)C(=O)N[C@H](C)C(=O)N(C)[C@@H](CC(C)C)C(=O)N(C)[C@@H](CC(C)C)C(=O)N(C)[C@@H](C(C)C)C(=O)N1C [Entry 5] | – | 66 |
| C/C=C/C[C@@H](C)[C@@H](O)[C@H]1C(=O)N[C@@H](CC)C(=O)N(C)[C@H](OCCN2CCCCC2)C(=O)N(C)[C@@H](CC(C)C)C(=O)N[C@@H](C(C)C)C(=O)N(C)[C@@H](CC(C)C)C(=O)N[C@@H](C)C(=O)N[C@H](C)C(=O)N(C)[C@@H](CC(C)C)C(=O)N(C)[C@@H](CC(C)C)C(=O)N(C)[C@@H](C(C)C)C(=O)N1C [Entry 6] | 2500 | 118 |
| C/C=C/C[C@@H](C)[C@@H](O)[C@H]1C(=O)N[C@@H](CC)C(=O)N(C)[C@H](OCCN2CCCC2)C(=O)N(C)[C@@H](CC(C)C)C(=O)N[C@@H](C(C)C)C(=O)N(C)[C@@H](CC(C)C)C(=O)N[C@@H](C)C(=O)N[C@H](C)C(=O)N(C)[C@@H](CC(C)C)C(=O)N(C)[C@@H](CC(C)C)C(=O)N(C)[C@@H](C(C)C)C(=O)N1C [Entry 7] | 1200 | 12 |
